Laboratory results: EP3108883A1, “THERAPEUTIC USES OF NON-PEPTIDE INHIBITORS OF THE CALCINEURIN - NFAT SIGNALLING PATHWAY” (Fundació Institut de Recerca Biomèdica de Bellvitge, priority 2015, dated 2016)

Molecular target: CN (Homo sapiens, UniProt Q08209)
Assay: In vitro CN phosphatase assay with pNPP as substrate
Assay type: biochemical
Conditions: ZnCl2 control at 50 µM
Description: CN activity towards the pNPP substrate was measured as described (McAvoy, et al., in Current Protocols in Molecular Biology. (John Wiley & Sons, Inc., 2001), vol. 92, chap. 18, pp. 18). The CN phosphatase assay kit (ENZO Life Sciences, Farmingdale, NY) was used to assess the dephosphorylation of phosphoRII peptide by CN (Mulero et al., 2009, supra.). Potential immunosuppressant CN inhibitors should compete with NFATc for binding, without blocking the general phosphatase activity of CN. As an initial screening test, the phosphatase activity of CN was analyzed using the small molecule p-nitrophenil phosphate (pNPP) as substrate (see Material and Methods). […] The ability of compounds 1-32 in inhibiting CN-NFATc signaling was evaluated in human HEK 293T cells using a luciferase gene reporter assay that includes the NFATc-dependent IL2 promoter (3[…]). After 24 hours of treatment, 50 μM of compounds 6, 9, 17, 19, 23, 25 and 29 inhibit more than 75% NFATc activity, while compounds 1, 2, 4, 8, 10, 14, and 24 inhibit 50-75% NFATc activity (Fig. 2B).

With [Cl-].[Cl-].[Zn+2] [ZnCl2] as the compound, how does the “CN phosphatase activity towards pNPP” value read?
Its value is “strongly inhibits enzymatic activity”.
